Patent US20250163038A1, “CBL-B MODULATORS AND USES THEREOF” (Nimbus Clio, Inc., priority 2021, published 2025)

Assays:
[1] = target: Recombinant human Cbl-b (aa 36-427) (Homo sapiens, UniProt Q13191); experiment: Cbl-b Biochemical Assay (TR-FRET); settings: read-out: TR-FRET hCbl-b IC50
[2] = tested on: Jurkat (clone E6-1) cells with NFAT luciferase reporter; experiment: Jurkat reporter assay (NFAT Luciferase); format: cell-based; settings: Homo sapiens; Jurkat NFAT luciferase reporter cells, anti-CD3 stimulation, 6 hr; read-out: Jurkat NFAT EC50
[3] = target: T1, Recombinant human c-Cbl (aa 47-435) (Homo sapiens, UniProt P22681); experiment: c-Cbl Biochemical Assay (TR-FRET); settings: hc-Cbl Biochemical Assay (TR-FRET); read-out: TR-FRET hcCbl IC50
T1 sequence (P22681 47-435): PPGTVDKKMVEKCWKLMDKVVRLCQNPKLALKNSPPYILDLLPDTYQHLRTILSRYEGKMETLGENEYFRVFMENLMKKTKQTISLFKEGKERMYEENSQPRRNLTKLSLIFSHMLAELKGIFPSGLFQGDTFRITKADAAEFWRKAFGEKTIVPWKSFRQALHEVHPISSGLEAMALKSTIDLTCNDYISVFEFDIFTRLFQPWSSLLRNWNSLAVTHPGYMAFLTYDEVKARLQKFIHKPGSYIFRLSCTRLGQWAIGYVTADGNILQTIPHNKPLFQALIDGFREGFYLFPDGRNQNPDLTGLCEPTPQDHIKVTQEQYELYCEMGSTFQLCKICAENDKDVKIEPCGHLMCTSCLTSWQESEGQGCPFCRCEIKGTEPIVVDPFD

Chain of Recombinant human Cbl-b (aa 36-427) (Q13191 36-427): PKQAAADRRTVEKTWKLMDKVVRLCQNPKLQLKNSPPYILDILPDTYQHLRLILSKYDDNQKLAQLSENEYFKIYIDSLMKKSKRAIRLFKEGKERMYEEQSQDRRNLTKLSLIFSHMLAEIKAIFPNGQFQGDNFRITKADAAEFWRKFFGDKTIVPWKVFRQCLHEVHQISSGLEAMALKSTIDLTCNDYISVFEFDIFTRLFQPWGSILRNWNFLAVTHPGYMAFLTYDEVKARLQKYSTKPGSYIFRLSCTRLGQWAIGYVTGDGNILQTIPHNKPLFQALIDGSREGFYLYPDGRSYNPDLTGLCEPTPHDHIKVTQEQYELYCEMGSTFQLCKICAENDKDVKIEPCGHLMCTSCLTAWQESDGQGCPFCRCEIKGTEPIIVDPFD

Row | SMILES | IC50 [1] | EC50 [2] | IC50 [3]
1 | Cn1cnnc1-c1cc(F)ccc1-c1cc(-c2nc3cc(CNCC(C)(C)O)c(F)c(F)c3o2)nc(C2CC2)c1 [AGF-1, 1-{[(2-{6-Cyclopropyl-4-[4-fluoro-2-(4-methyl-1,2,4-triazol-3-yl)phenyl]pyridin-2-yl}-6,7-difluoro-1,3-benzoxazol-5-yl)methyl]amino}-2-methylpropan-2-ol] | < 200 nM | < 200 nM | < 200 nM
2 | Cn1cnnc1-c1cc(F)ccc1-c1cccc(-c2nc3cc(CNC[C@H](O)C(F)(F)F)cc(C(F)(F)F)c3o2)c1 [DM-2, (S)-1,1,1-Trifluoro-3-(((2-(4′-fluoro-2′-(4-methyl-4H-1,2,4-triazol-3-yl)-[1,1′-biphenyl]-3-yl)-7-(trifluoromethyl)benzo[d]oxazol-5-yl)methyl)amino)propan-2-ol] | < 200 nM | < 200 nM | < 200 nM
3 | COC(=O)C1(c2cc(F)c3oc(-c4cc(-c5ccc(F)cc5-c5nncn5C)cc(C5CC5)n4)nc3c2)CC1 [AGM-8, Methyl 1-(2-{6-cyclopropyl-4-[4-fluoro-2-(4-methyl-1,2,4-triazol-3-yl)phenyl]pyridin-2-yl}-7-fluoro-1,3-benzoxazol-5-yl) cyclopropane-1-carboxylate] | 200 to 1000 nM | 1000 to 10000 nM | 1000 to 10000 nM
4 | CNCc1cc2nc(-c3cc(-c4ccc(F)cc4-c4nncn4C)cc(C4CC4)n3)oc2c(F)c1F [AHA-2, [(2-{6-cyclopropyl-4-[4-fluoro-2-(4-methyl-1,2,4-triazol-3-yl)phenyl]pyridin-2-yl}-6,7-difluoro-1,3-benzoxazol-5-yl)methyl](methyl)amine] | < 200 nM | 1000 to 10000 nM | 200 to 1000 nM
5 | COCCNCc1cc2nc(-c3cc(-c4ccc(F)cc4-c4nncn4C)cc(C4CC4)n3)oc2c(C)c1F [AHG-1, [(2-{6-cyclopropyl-4-[4-fluoro-2-(4-methyl-1,2,4-triazol-3-yl)phenyl]pyridin-2-yl}-6-fluoro-7-methyl-1,3-benzoxazol-5-yl)methyl](2-methoxyethyl)amine] | < 200 nM | < 200 nM | < 200 nM
6 | Cn1cnnc1-c1cc(F)ccc1-c1cccc(-c2nc3cc(CNCC4(C#N)CCCC4)cc(C(F)(F)F)c3[nH]2)c1 [CS-1, 1-((((2-(4′-Fluoro-2′-(4-methyl-4H-1,2,4-triazol-3-yl)-[1,1′-biphenyl]-3-yl)-7-(trifluoromethyl)-1H-benzo[d]imidazol-5-yl)methyl)amino)methyl)cyclopentane-1-carbonitrile] | < 200 nM | 200 to 1000 nM | < 200 nM
7 | CO[C@@H]1CCCN(Cc2cc(C(F)(F)F)c3oc(-c4cccc(-c5ccc(F)cc5-c5nncn5C)c4)nc3c2)C1 [JR-2, (R)-2-(4′-Fluoro-2′-(4-methyl-4H-1,2,4-triazol-3-yl)-[1,1′-biphenyl]-3-yl)-5-((3-methoxypiperidin-1-yl)methyl)-7-(trifluoromethyl)benzo[d]oxazole] | < 200 nM | 200 to 1000 nM | 200 to 1000 nM
8 | C[C@H](N[C@@H]1CCC[C@@H]1O)c1cc(C(F)(F)F)c2oc(-c3cccc(-c4ccc(F)cc4-c4nncn4C)c3)nc2c1 [EA-1, (1S,2R)-2-(((S)-1-(2-(4′-Fluoro-2′-(4-methyl-4H-1,2,4-triazol-3-yl)-[1,1′-biphenyl]-3-yl)-7-(trifluoromethyl)benzo[d]oxazol-5-yl)ethyl)amino)cyclopentan-1-ol] | < 200 nM | < 200 nM | < 200 nM
9 | COc1cc(CO)cc2nc(-c3cccc(-c4ccc(F)cc4-c4nncn4C)c3)oc12 [DW-3, (2-(4′-Fluoro-2′-(4-methyl-4H-1,2,4-triazol-3-yl)-[1,1′-biphenyl]-3-yl)-7-methoxybenzo[d]oxazol-5-yl)methanol] | 1000 to 10000 nM | 10000 to 50000 nM | 1000 to 10000 nM
10 | Cn1cnnc1-c1cc(F)ccc1-c1cccc(-c2nc3cc(CNCC(C)(C)C#N)cc(C(F)(F)F)c3o2)c1 [DN-2, 3-(((2-(4′-fluoro-2′-(4-methyl-4H-1,2,4-triazol-3-yl)-[1,1′-biphenyl]-3-yl)-7-(trifluoromethyl)benzo[d]oxazol-5-yl)methyl)amino)-2,2-dimethylpropanenitrile] | < 200 nM | 200 to 1000 nM | < 200 nM
11 | CCOCCNCc1cc(C(F)(F)F)c2oc(-c3cccc(-c4ccc(F)cc4-c4nncn4C)c3)nc2c1 [FI-2, 2-Ethoxy-N-((2-(4′-fluoro-2′-(4-methyl-4H-1,2,4-triazol-3-yl)-[1,1′-biphenyl]-3-yl)-7-(trifluoromethyl)benzo[d]oxazol-5-yl)methyl)ethan-1-amine] | < 200 nM | < 200 nM | < 200 nM
12 | Cn1cnnc1-c1cc(F)ccc1-c1cccc(-c2nc3cc(CNCC4(O)CC4)cc(C(F)(F)F)c3o2)c1 [AH-2, 1-((((2-(4′-Fluoro-2′-(4-methyl-4H-1,2,4-triazol-3-yl)-[1,1′-biphenyl]-3-yl)-7-(trifluoromethyl)benzo[d]oxazol-5-yl)methyl)amino)methyl)cyclopropan-1-ol] | < 200 nM | 200 to 1000 nM | 1000 to 10000 nM
13 | Cn1cnnc1-c1cc(F)ccc1-c1cc(-c2nc3cc(CNCC4CCC4)cc(C(F)(F)F)c3o2)cc(C2CC2)c1 [JU-1, 1-Cyclobutyl-N-((2-(5-cyclopropyl-4′-fluoro-2′-(4-methyl-4H-1,2,4-triazol-3-yl)-[1,1′-biphenyl]-3-yl)-7-(trifluoromethyl)benzo[d]oxazol-5-yl)methyl)methanamine] | < 200 nM | < 200 nM | < 200 nM
14 | Cn1cnnc1-c1cc(F)ccc1-c1cccc(-c2nc3cc(CN[C@@H]4CCC[C@@H]4O)c(F)c(F)c3o2)c1 [HX-8, (1S,2R)-2-(((6,7-Difluoro-2-(4′-fluoro-2′-(4-methyl-4H-1,2,4-triazol-3-yl)-[1,1′-biphenyl]-3-yl)benzo[d]oxazol-5-yl)methyl)amino)cyclopentan-1-ol] | < 200 nM | < 200 nM | < 200 nM
15 | Cn1cnnc1-c1cc(F)ccc1-c1cc(Cl)nc(-c2nc3cc(CN[C@@H]4CCC[C@@H]4O)cc(C(F)(F)F)c3[nH]2)c1 [ADY-2, (1S,2R)-2-{[(2-{6-Chloro-4-[4-fluoro-2-(4-methyl-1,2,4-triazol-3-yl)phenyl]pyridin-2-yl}-7-(trifluoromethyl)-1H-1,3-benzodiazol-5-yl)methyl]amino}cyclopentan-1-ol] | < 200 nM | < 200 nM | < 200 nM
16 | CON(C)C(=O)c1cc(C(F)(F)F)c2oc(-c3cccc(-c4ccc(F)cc4-c4nncn4C)c3)nc2c1 [DJ-2, 2-(4′-Fluoro-2′-(4-methyl-4H-1,2,4-triazol-3-yl)-[1,1′-biphenyl]-3-yl)-N-methoxy-N-methyl-7-(trifluoromethyl)benzo[d]oxazole-5-carboxamide] | < 200 nM | 1000 to 10000 nM | 200 to 1000 nM
17 | COc1cc(CN[C@@H]2CCC[C@]2(C)O)cc2nc(-c3cccc(-c4ccc(F)cc4-c4nncn4C)c3)oc12 [GI-2, (1S,2R)-2-(((2-(4′-Fluoro-2′-(4-methyl-4H-1,2,4-triazol-3-yl)-[1,1′-biphenyl]-3-yl)-7-methoxybenzo[d]oxazol-5-yl)methyl)amino)-1-methylcyclopentan-1-ol, Formic Acid] | 200 to 1000 nM | 1000 to 10000 nM | 200 to 1000 nM
